Source: patent publication US20120301895A1, “METHODS OF MODULATING BINDING OF SON OF SEVENLESS TO PHOSPHATIDIC ACID AND IDENTIFYING COMPOUNDS THAT MODULATE SUCH BINDING” (THE RESEARCH FOUNDATION OF STATE UNIVERSITY OF NEW YORK, priority 2007, published 2012)

Experiments:
Calu-1 cells = experiment: Cell viability and PARP cleavage in Calu-1 cells; type: cell-based, human; conditions: honokiol 20 μM, 0.5% serum
Description: In FIG. 17A, T24 and Calu1 cells (obtained from the American Type Culture Collection) were plated in DMEM containing 10% serum for 48 hr and then shifted to either 10% serum or 0.5% serum overnight as indicated. Honokiol (20 μM) or control ethanol was then added for 4 hr as indicated. [^3H]-Myristate was added with the honokiol. After 4 hr, BtOH (0.7%) was added for 20 min, at which time the cells were harvested and the level of phosphatidyl-BtOH (P-Bt) was determined as in FIGS. 12A-C. The experiments shown are representative of at least two independent experiments. In FIG. 17B, T24 and Calu-1 cells were plated in DMEM with 10% serum for 48 hr then changed to DMEM containing either 10% or 0.5% serum overnight as indicated. Honokiol (20 μM) or control ethanol was then added either at the time of changing media (24 hr), or 4 hr before harvesting as in FIGS. 14A-E, at which time the cells were examined for cell viability or PARD cleavage. […]
Cell viability was determined by trypan blue exclusion. […] After 10 min, trypan blue uptake (dead cells) was determined by counting on a hemocytometer. Apoptosis was evaluated by examination of cleavage of the caspase 3 substrate PARP as described previously (Chen et al., “Alternative Phospholipase D/mTOR Survival Signal in Human Breast Cancer Cells,” Oncogene 24:672-9 (2005), which is hereby incorporated by reference in its entirety). […]

S6K and 4E-BP1 = experiment: Phosphorylation of mTOR substrates S6K and 4E-BP1 in MDA-MB-231 cells (Western blot); type: cell-based, human; conditions: honokiol 20 μM, 0.5% serum
Description: In FIG. 15A, MDA-MB-231 cells were plated in DMEM with 10% serum. 48 hr later the cells were shifted to 0.5% for 16 hr. Honokiol (20 μM) or control ethanol was then added for the indicated times. The cells were then harvested and analyzed for levels of S6K, phosphorylated S6K (P-S6K), 4E-BP1, and P-4E-BP1 by Western blot analysis as described previously (Zheng et al., “Phospholipase D Couples Survival and Migration Signals in Response to Stress in Human Breast Cancer Cells,” J. Biol. Chem. 281:15862-8 (2006), which is hereby incorporated by reference in its entirety). In FIG. 15B, 786-O cells were plated and then shifted to media containing 0.5% serum 24 hr later. 18 hr later, the cells were treated with 1-Bt0H (0.8%), honokiol (Hon) (20 μM), and t-BtOH (0.8%) as indicated. Cell lysates were prepared 4 hr later and examined for HIF2α and actin expression by Western lot analysis. The experiment shown is representative of two independent experiments.
Extraction of proteins from cultured cells and Western blot analysis of extracted proteins was performed using the ECL system (Amersham) as described previously (Chen et al., “Alternative Phospholipase D/mTOR Survival Signal in Human Breast Cancer Cells,” Oncogene 24:672-9 (2005), which is hereby incorporated by reference in its entirety). […]

[1] = tested on: B-cell chronic lymphocytic leukemia cells; conditions: Battle et al. 2005; cited from earlier work

C=CCc1ccc(O)c(-c2ccc(O)c(CC=C)c2)c1 [honokiol, Honokiol]
PARP cleavage (Calu-1 cells): induced
cell death (Calu-1 cells): induced
phosphorylation of 4E-BP1 (S6K and 4E-BP1): suppressed
phosphorylation of S6K (S6K and 4E-BP1): suppressed
apoptosis in B-CLL cells [1]: induce caspase-dependent apoptosis
